Experimental data from article PMC4830977 (Scientific Reports, 2016).
Values joined by “and” are separate entries in the source; they are usually repeats but may differ in a detail not shown here. Equal values may be shown once. Read-outs that look alike come from different tables or passages of the source.

Key:
TSP4-EGF = assay: 3H-gabapentin binding to TSP4-EGF alone (control); settings: control experiment, data not shown
TSP4 = assay: 3H-gabapentin binding to membranes of tsA-201 cells expressing only TSP4 (control); settings: 1 experiment in triplicate
Protocol: Each experiment was carried out in triplicate, and the mean value used for subsequent analysis.
Harvesting of the samples was performed by filtration through GF/B filter papers (Whatman, GE Healthcare) pre-soaked in 0.3% polyethyleneimine solution, in order to reduce non-specific binding to the filter paper. The samples were transferred to the filters by washing the tubes three times with Tris-HCl (100 mM, pH 7.4, Sigma 7–9) using a Brandel Harvester (Brandel). The GF/B filter papers were then cut out and transferred to vials containing 5 ml of scintillant (Liquid scintillant cocktail, Beckman Coulter). Samples were equilibrated for 18 h and then the activity was counted in triplicate in a scintillation counter (Beckman Coulter) for 10 min per sample.

α2δ-1-MIDAS^AAA = assay: [3H]-gabapentin saturation binding to membranes of tsA-201 cells expressing α2δ-1 MIDAS mutant
Protocol: Cell membrane and DRM fractions were prepared essentially as described previously. Cultured tsA-201 cells were washed twice in ice-cold PBS and then left in ice-cold PBS containing Complete protease inhibitor cocktail (Roche, concentration according to manufacturer’s instructions) for 5 min. Cells were gently washed off the bottom of the flask and pelleted at 2000 × g for 10 min. Pellets were kept on ice if used immediately, or stored at −20 °C until required. For brain membranes, adult male Sprague Dawley rats (200–250 g) were euthanised by CO2 inhalation and then decapitated. The whole brain minus cerebellum was homogenised on ice in a buffer containing the following (in mM): 20 HEPES, pH 7.4, 2 EDTA, EDTA-free protease inhibitor cocktail (Roche, concentration according to manufacturer’s instructions).
For membrane preparation, pellets obtained from cell harvesting, resuspended in ice-cold 10 mM Hepes plus protease inhibitors (pH 7.4), or brain homogenate, were mechanically lysed by 10–15 passages through a 23 gauge needle. Cell debris and non-lysed cells were pelleted for 15 min at 1,000 × g. The supernatant obtained was transferred to a 30 ml thick-walled ultracentrifuge tube (Beckman-Coulter). Membranes were pelleted in an ultracentrifuge (Beckman-Coulter) for 90 min at 60,000 × g, and resuspended as required. Aliquots were used to determine the protein concentration.

[1] = tested on: synaptogenic domain of TSP2 and α2δ-1; settings: co-expressed in HEK-293 cells; cited from earlier work
[2] = α2δ-1-MIDAS^AAA + TSP4 with EDTA, n = 3 (Fig. 1F)
[3] = α2δ-1-MIDAS^AAA + TSP4 with Mg2+, n = 3 (Fig. 1F)
[4] = α2δ-1-MIDAS^AAA with EDTA, n = 3 (Fig. 1F)

SMILES | binding to TSP4-EGF alone (TSP4-EGF) | binding to TSP4 alone (TSP4) | nH (α2δ-1-MIDAS^AAA) | mean Bmax (α2δ-1-MIDAS^AAA; [2]) [pmol/mg protein] | nH (α2δ-1-MIDAS^AAA; [2]) | mean Bmax (α2δ-1-MIDAS^AAA; [3]) [pmol/mg protein] | nH (α2δ-1-MIDAS^AAA; [3]) | mean Bmax (α2δ-1-MIDAS^AAA; [4]) [pmol/mg protein] | nH (α2δ-1-MIDAS^AAA; [4]) | Kd (α2δ-1-MIDAS^AAA; α2δ-1-MIDAS^AAA with Mg2+, n = 2 (Fig. 1F), read-out: KD, individual values) | mean Bmax (α2δ-1-MIDAS^AAA; α2δ-1-MIDAS^AAA with Mg2+, n = 2, individual values 0.53, 0.38 (Fig. 1F)) [pmol/mg protein] | binding affinity compared with WT α2δ-1 (α2δ-1-MIDAS^AAA; α2δ-1 MIDAS^AAA (Fig. 1F)) | effect on co-immunoprecipitation between synaptogenic domain of TSP2 and α2δ-1 [1]
NCC1(CC(=O)O)CCCCC1 [[^3H]-gabapentin] | no ^3H-gabapentin binding | no direct binding | 1.43 | 0.24 ± 0.02 | 1.49 ± 0.10 | 0.37 ± 0.06 | 1.45 ± 0.05 | 0.68 ± 0.12 | 1.33 ± 0.07 | 117 nM and 190 nM | 0.46 | affinity similar to WT α2δ-1 | –
NCC1(CC(=O)O)CCCCC1 [gabapentin] | – | – | – | – | – | – | – | – | – | – | – | – | inhibit co-immunoprecipitation
